Measurements as given in patent publication US9232796B2, “Herbicidal compositions comprising 4-amino-3-chloro-5-fluoro-6-(4-chloro-2-fluoro-3-methoxyphenyl) pyridine-2-carboxylic acid or a derivative thereof and acetyl-CoA carboxylase (ACCase) inhibitors” (DOW AGROSCIENCES LLC, priority 2012, dated 2016).

How the values were obtained:
Experiment in all cases: Example IV postemergence foliar-applied, greenhouse, cereal crops weeds
LOLMU = assay type: in vivo, Lolium multiflorum Lam.
Protocol: (§1) Seeds of the desired test plant species were planted in Sun Gro MetroMix® 306 planting mixture, which typically has a pH of 6.0 to 6.8 and an organic matter content of about 30 percent, in plastic pots with a surface area of 103.2 square centimeters (cm^2). When required to ensure good germination and healthy plants, a fungicide treatment and/or other chemical or physical treatment was applied. The plants were grown for 7-36 days in a greenhouse with an approximate 14 hour photoperiod which was maintained at about 18° C. during the day and about 17° C. during the night. Nutrients and water were added on a regular basis and supplemental lighting was provided with overhead metal halide 1000-Watt lamps as necessary. The plants were employed for testing when they reached the second or third true leaf stage.
(§2) Treatments consisted of the benzyl ester of 4-amino-3-chloro-5-fluoro-6-(4-chloro-2-fluoro-3-methoxy-phenyl)pyridine-2-carboxylic acid (Compound A), formulated as an SC, a second cereal herbicide alone and then both in combination.
(§3) Other herbicidal components were applied on an active ingredient basis and included acetyl-CoA carboxylase (ACCase)-inhibiting herbicides clodinafop-propargyl, fenoxaprop-P-ethyl, pinoxaden and tralkoxydim.
(§4) Measured aliquots of benzyl ester of 4-amino-3-chloro-5-fluoro-6-(4-chloro-2-fluoro-3-methoxy-phenyl)pyridine-2-carboxylic acid (Compound A) were placed in 25 milliliter (mL) glass vials and diluted in a volume of 1.25% (v/v) Agri-Dex® crop oil concentrate to obtain stock solutions. Compound requirements are based upon a 12 mL application volume at a rate of 187 liters per hectare (L/ha). Spray solutions of the second cereal herbicide and experimental compound mixtures were prepared by adding the stock solutions to the appropriate amount of dilution solution to form 12 mL spray solution with active ingredients in two- and three-way combinations. Formulated compounds were applied to the plant material with an overhead Mandel track sprayer equipped with an 8002E nozzle calibrated to deliver 187 L/ha over an application area of 0.503 square meters (m^2) at a spray height of 18 inches (46 cm) above average plant canopy. Control plants were sprayed in the same manner with the solvent blank.
(§5) The treated plants and control plants were placed in a greenhouse as described above and watered by sub-irrigation to prevent wash-off of the test compounds. After 20-22 days, the condition of the test plants as compared with that of the control plants was determined visually and scored on a scale of 0 to 100 percent where 0 corresponds to no injury and 100 corresponds to complete kill.
(§6) Colby's equation was used to determine the herbicidal effects expected from the mixtures (Colby, S. R. 1967. Calculation of the synergistic and antagonistic response of herbicide combinations. Weeds 15:20-22.).
(§7) The following equation was used to calculate the expected activity of mixtures containing two active ingredients, A and B: Expected=A+B−(A×B/100)

PHAMI = assay type: in vivo, Phalaris minor Retz.
Protocol: as §1, with “When required to ensure good germination and healthy plants, a fungicide treatment and/or other chemical or physical treatment was applied.” left out
as §2, §3
as §4, with “Spray solutions of the second cereal herbicide and experimental compound mixtures were prepared by adding the stock solutions to the appropriate amount of dilution solution to form 12 mL spray solution with active ingredients in two- and three-way combinations.” left out
as §5, §6, §7

KCHSC = assay type: in vivo, Kochia scoparia (L.) Schrad.
Protocol: as §1, with “When required to ensure good germination and healthy plants, a fungicide treatment and/or other chemical or physical treatment was applied.” left out
as §2, §3
as §4, with “Spray solutions of the second cereal herbicide and experimental compound mixtures were prepared by adding the stock solutions to the appropriate amount of dilution solution to form 12 mL spray solution with active ingredients in two- and three-way combinations.” left out
as §5, §6, §7

[1] = Compound A Benzyl Ester 5 gai/ha
[2] = Compound A Benzyl Ester 10 gai/ha

Q: How did the “Visual Weed Control (%) - 21 DAA LOLMU Obs” value (LOLMU; [1]) turn out when `COc1c(Cl)ccc(-c2nc(C(=O)OCc3ccccc3)c(Cl)c(N)c2F)c1F` [Compound A Benzyl Ester, benzyl ester of 4-amino-3-chloro-5-fluoro-6-(4-chloro-2-fluoro-3-methoxy-phenyl)pyridine-2-carboxylic acid] was run?
A: 0%

Q: And the “Visual Weed Control (%) - 21 DAA LOLMU Obs” value (LOLMU; [2])?
A: 0%

Q: What about the “Visual Weed Control (%) - 21 DAA PHAMI Obs” value (PHAMI; [1]) of the same molecule?
A: 0%

Q: What about the “Visual Weed Control (%) - 21 DAA PHAMI Obs” value (PHAMI; [2]) of the same molecule?
A: 0%

Q: And the “Visual Weed Control (%) - 21 DAA KCHSC Obs” value (KCHSC; [1])?
A: 20%

Q: And the “Visual Weed Control (%) - 21 DAA KCHSC Obs” value (KCHSC; [2])?
A: 30%
